7 molecules from ChEMBL document CHEMBL1123283, “Quinazoline antifolates inhibiting thymidylate synthase: variation of the amino acid” (1986) can be followed below.

Test [1] has as its target Thymidylate synthase (Mus musculus) (UniProt P07607).
Description: Inverse relative potency for the inhibition of L1210 thymidylate synthase
Another test concerns L1210. Description: Inhibitory dose for L1210 cells in culture. Not tested at higher concentrations because of their limited solubility. It is filed as functional. The following applies: Mus musculus, read-out: ID50 (the source's name).

Chain of Thymidylate synthase (Mus musculus) (P07607 whole entry, looked up): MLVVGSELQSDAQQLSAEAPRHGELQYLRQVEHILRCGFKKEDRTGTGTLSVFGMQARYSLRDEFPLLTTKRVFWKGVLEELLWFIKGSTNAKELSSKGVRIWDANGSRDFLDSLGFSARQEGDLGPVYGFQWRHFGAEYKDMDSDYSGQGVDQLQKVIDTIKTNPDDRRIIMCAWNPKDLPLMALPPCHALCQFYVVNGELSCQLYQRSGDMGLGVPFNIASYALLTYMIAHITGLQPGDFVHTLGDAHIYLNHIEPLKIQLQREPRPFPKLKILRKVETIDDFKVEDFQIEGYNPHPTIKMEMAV

`C#CCN(Cc1ccc2nc(N)nc(O)c2c1)c1ccc(C(=O)NC(C)C(=O)O)cc1` (stereo not drawn): the Potency in test [1] turned out to be 5.2. Also, the IC50 with L1210 is more than 10 µM. On to `C#CCN(Cc1ccc2[nH]c(N)nc(=O)c2c1)c1ccc(C(=O)NC(CCC(=O)O)C(=O)O)cc1` (stereo not drawn), for which, in the test with L1210, the IC50 was found to be 5 µM. In turn, `C#CCN(Cc1ccc2nc(N)nc(O)c2c1)c1ccc(C(=O)O)cc1` showed a Potency in test [1] of 84. Further, the IC50 with L1210 is more than 200 µM. The like results for `C#CCN(Cc1ccc2nc(N)nc(O)c2c1)c1ccc(C(=O)NC(CC(=O)O)C(=O)O)cc1` (stereo not drawn) were, in that order, 8.9 and more than 137 µM. The like results for `C#CCN(Cc1ccc2nc(N)nc(O)c2c1)c1ccc(C(=O)NCC(=O)O)cc1` were, in that order, 20.7 and more than 100 µM.

As to `C#CCN(Cc1ccc2nc(N)nc(O)c2c1)c1ccc(C(=O)NC(CCC(=O)OCC)C(=O)OCC)cc1` (stereo not drawn), the Potency in test [1] is more than 62. Further, the IC50 in the test on L1210 stood at 52 µM. As to `C#CCN(Cc1ccc2nc(N)nc(O)c2c1)c1ccc(CCCC(=O)O)cc1`, in test [1], the Potency was determined as 333. For the same molecule, the IC50 with L1210 was more than 10 µM.
